Toxic doses and inconclusive results are not listed. No stated cut-off is given here; in the data, active means T/C of 150% or more; inactive means T/C below 125%.
Test system: L1210 leukemia ip in BDF1 mice, survival T/C
Test: NCI In Vivo Anticancer Drug Screen. Data for tumor model L1210 Leukemia (intraperitoneal) in B6D2F1 (BDF1) mice
Details: endpoint: mean survival time, higher = longer survival
Summary of the method: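 Ratio derived from survival: compound-dosed mice over vehicle-dosed mice, all bearing a transplantable tumor.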

[1] = dose: 100.0 mg/kg/injection, schedule: Q01DX001 (ip), vehicle: saline
[2] = dose: 200.0 mg/kg/injection, schedule: Q01DX001 (ip), vehicle: saline
[3] = dose: 50.0 mg/kg/injection, schedule: Q01DX001 (ip), vehicle: carboxymethylcellulose (CMC)
[4] = dose: 100.0 mg/kg/injection, schedule: Q01DX001 (ip), vehicle: carboxymethylcellulose (CMC)
[5] = dose: 200.0 mg/kg/injection, schedule: Q01DX001 (ip), vehicle: carboxymethylcellulose (CMC)
[6] = dose: 400.0 mg/kg/injection, schedule: Q01DX001 (ip), vehicle: carboxymethylcellulose (CMC)
[7] = dose: 100.0 mg/kg/injection, schedule: Q01DX009 (ip), vehicle: saline sonified
[8] = dose: 200.0 mg/kg/injection, schedule: Q01DX009 (ip), vehicle: saline sonified
[9] = dose: 400.0 mg/kg/injection, schedule: Q01DX009 (ip), vehicle: saline sonified
[10] = dose: 50.0 mg/kg/injection, schedule: Q01DX009 (ip), vehicle: Klucel (hydroxypropylcellulose) (HPC)
[11] = dose: 100.0 mg/kg/injection, schedule: Q01DX009 (ip), vehicle: Klucel (hydroxypropylcellulose) (HPC)
[12] = dose: 100.0 mg/kg/injection, schedule: Q04DX003 (ip), vehicle: Klucel (hydroxypropylcellulose) (HPC)
[13] = dose: 200.0 mg/kg/injection, schedule: Q04DX003 (ip), vehicle: Klucel (hydroxypropylcellulose) (HPC)
[14] = dose: 200.0 mg/kg/injection, schedule: Q01DX009 (ip), vehicle: Klucel (hydroxypropylcellulose) (HPC)
[15] = dose: 400.0 mg/kg/injection, schedule: Q01DX009 (ip), vehicle: Klucel (hydroxypropylcellulose) (HPC)
[16] = dose: 100.0 mg/kg/injection, schedule: Q04DX003 (ip), vehicle: saline with Tween-80

Measured: T/C

CCOC(=O)C(C(=O)O)C(=O)CCO (stereo not drawn)
inactive: [1] 98 % of control | [2] 94 % of control

CSc1ccc(NC(=O)C(F)(F)F)cc1
inactive: [3] 97 % of control | [4] 92 % of control | [5] 97 % of control | [6] 95 % of control

O=C(O)c1ccc(OCCOc2ccccc2)cc1
inactive: [7] 90 % of control | [8] 95 % of control | dose: 200.0 mg/kg/injection, schedule: Q04DX003 (ip), vehicle: saline sonified 100 % of control | [9] 93 % of control | dose: 400.0 mg/kg/injection, schedule: Q04DX003 (ip), vehicle: saline sonified 108 % of control

Nc1ccc2ccccc2c1N=Nc1ccc(C(O)C(N)CO)cc1 (stereo not drawn)
inactive: dose: 6.25 mg/kg/injection, schedule: Q01DX009 (ip), vehicle: saline 117 % of control | dose: 12.5 mg/kg/injection, schedule: Q01DX009 (ip), vehicle: saline 98 % of control | dose: 25.0 mg/kg/injection, schedule: Q01DX009 (ip), vehicle: saline 96 % of control

N=C1SSC(=S)C1C(N)=O (stereo not drawn)
inactive: [3] 94 % of control | [4] 96 % of control | [5] 100 % of control | [6] 100 % of control

C=CCOC(=O)Nc1ccc(S(=O)(=O)N(C)C)cc1
inactive: [4] 97 % of control | [5] 93 % of control | [6] 97 % of control

O=S(=O)(O)C(O)c1ccc(C(O)S(=O)(=O)O)cc1 (stereo not drawn)
inactive: [1] 107 % of control | dose: 100.0 mg/kg/injection, schedule: Q04DX003 (ip), vehicle: saline 92 % of control | [2] 107 % of control | dose: 200.0 mg/kg/injection, schedule: Q04DX003 (ip), vehicle: saline 102 % of control | dose: 400.0 mg/kg/injection, schedule: Q01DX001 (ip), vehicle: saline 105 % of control | dose: 400.0 mg/kg/injection, schedule: Q04DX003 (ip), vehicle: saline 95 % of control

CSc1nc(N)cc(NC(=O)CCl)n1
inactive: [10] 101 % of control | [11] 102 % of control | [12] 92 % of control | [13] 92 % of control

Cc1cc([N+](=O)[O-])ccc1NC(=O)Nc1cccc(C(F)(F)F)c1
inactive: [11] 88 % of control | [14] 92 % of control | [15] 90 % of control

CCC[CH2][Sn]1([CH2]CCC)[O]OC(c2ccc(C)cc2)[O]1 (stereo not drawn)
inactive: dose: 12.5 mg/kg/injection, schedule: Q01DX009 (ip), vehicle: Klucel (hydroxypropylcellulose) (HPC) 101 % of control | dose: 12.5 mg/kg/injection, schedule: Q04DX002 (ip), vehicle: Klucel (hydroxypropylcellulose) (HPC) 94 % of control | dose: 25.0 mg/kg/injection, schedule: Q01DX009 (ip), vehicle: Klucel (hydroxypropylcellulose) (HPC) 119 % of control | dose: 25.0 mg/kg/injection, schedule: Q04DX002 (ip), vehicle: Klucel (hydroxypropylcellulose) (HPC) 86 % of control

Cc1cscc(C)c1=S
inactive: dose: 6.25 mg/kg/injection, schedule: Q01DX009 (ip), vehicle: saline + alcohol 106 % of control | dose: 12.5 mg/kg/injection, schedule: Q01DX009 (ip), vehicle: saline + alcohol 105 % of control | dose: 25.0 mg/kg/injection, schedule: Q01DX009 (ip), vehicle: saline + alcohol 92 % of control

Nc1ccccc1-c1ccccc1N
inactive: dose: 25.0 mg/kg/injection, schedule: Q04DX002 (ip), vehicle: saline 100 % of control | dose: 50.0 mg/kg/injection, schedule: Q04DX002 (ip), vehicle: saline 98 % of control | [11] 96 % of control | dose: 100.0 mg/kg/injection, schedule: Q04DX002 (ip), vehicle: saline 114 % of control | [12] 94 % of control | [14] 102 % of control | [13] 91 % of control | [15] 93 % of control | dose: 400.0 mg/kg/injection, schedule: Q04DX003 (ip), vehicle: Klucel (hydroxypropylcellulose) (HPC) 104 % of control

CC(C)(C)C(=O)OCn1cnc(=N)c2[nH]cnc21
inactive: [12] 100 % of control | [13] 108 % of control

CCc1ccc(NC(=O)NC(C)C)cc1
inactive: [10] 113 % of control | [11] 91 % of control | [12] 103 % of control | [14] 103 % of control | [13] 92 % of control

CCC(C)N=Cc1ccccc1O.CCC(C)N=Cc1ccccc1O.[Cu] (stereo not drawn)
inactive: dose: 9.5 mg/kg/injection, schedule: Q01DX001 (ip), vehicle: other 100 % of control | dose: 19.0 mg/kg/injection, schedule: Q01DX001 (ip), vehicle: other 107 % of control | dose: 38.0 mg/kg/injection, schedule: Q01DX001 (ip), vehicle: other 100 % of control

CN(C)CCN(C)N=Nc1c(-c2cccs2)n[nH]c1C(F)(F)F
inactive: dose: 75.0 mg/kg/injection, schedule: Q01DX001 (ip), vehicle: other 94 % of control | dose: 150.0 mg/kg/injection, schedule: Q01DX001 (ip), vehicle: other 98 % of control | dose: 300.0 mg/kg/injection, schedule: Q01DX001 (ip), vehicle: other 93 % of control

O=C1c2ccccc2-c2ccccc21
inactive: dose: 100.0 mg/kg/injection, schedule: Q01DX009 (ip), vehicle: saline with Tween-80 88 % of control | [16] 102 % of control | dose: 200.0 mg/kg/injection, schedule: Q01DX009 (ip), vehicle: saline with Tween-80 93 % of control | dose: 200.0 mg/kg/injection, schedule: Q04DX003 (ip), vehicle: saline with Tween-80 102 % of control | dose: 400.0 mg/kg/injection, schedule: Q01DX009 (ip), vehicle: saline with Tween-80 88 % of control | dose: 400.0 mg/kg/injection, schedule: Q04DX003 (ip), vehicle: saline with Tween-80 105 % of control

COc1ccc2c(c1)CCC1CC(=O)C=C21 (stereo not drawn)
inactive: [7] 113 % of control | [8] 103 % of control | [9] 104 % of control

C/C=C(\Br)C(=O)O
inactive: dose: 100.0 mg/kg/injection, schedule: Q04DX002 (ip), vehicle: other 104 % of control | [16] 92 % of control | dose: 200.0 mg/kg/injection, schedule: Q04DX002 (ip), vehicle: other 104 % of control

Cc1ccccc1C(O)(c1ccccc1C)C1(O)CCN(C)CC1
inactive: dose: 9.37 mg/kg/injection, schedule: Q01DX009 (ip), vehicle: saline 94 % of control | dose: 18.75 mg/kg/injection, schedule: Q01DX009 (ip), vehicle: saline 96 % of control | dose: 37.5 mg/kg/injection, schedule: Q01DX009 (ip), vehicle: saline 100 % of control

Source: PubChem BioAssay AID248 (DTP/NCI, 2004)
